This is an account of results in patent publication US11753399B2, “Therapeutic compounds” (Gilead Sciences, Inc., priority 2018, dated 2023).

One data set concerns HIV-IIIb. Briefly: Test A: Antiviral Assay in MT4 Cells. As to conditions: inhibition of virus-induced cell killing, MT-4 cells, HIV-IIIb, 5 days, values normalized to 100%; for inhibition at 0.01 µM / inhibition at 0.2 µM: Human immunodeficiency virus 1, MT4, 120 h; for inhibition at 0.01 µM: read-out: % inhibition at 0.01 μM; for inhibition at 0.2 µM: read-out: % inhibition at 0.20 μM. The data set is classed as cell-based, HIV-1. The procedure: (§1) MT-4 cells were next mixed with HIV-IIIb at a multiplicity of infection (m.o.i.) of 0.003 for 1 hour, after which time 35 μL of virus/cell mixture (2000 cells) was immediately added to each well containing 40 μL of diluted compound. The plates were then incubated at 37° C. for 5 days. After 5 days of incubation, 25 μl of 2× concentrated CellTiter-Glo Reagent (catalog #G7571, Promega Biosciences, Inc., Madison, Wis.) was added to each well containing MT-4 cells. Cell lysis was carried out by incubating at room temperature for 10 min and then chemiluminescence was read.

In a further data set the test system is MT-4 cells. The data set can be described thus: Test B: Cytotoxicity Assay (same protocol as Test A, uninfected cells). The data set is classed as cell-based. Conditions: uninfected MT-4 cells, 5 days, CellTiter-Glo. The procedure:
as §1, with “read. […] Compound cytotoxicity and the corresponding CC50 values was determined using the same protocol as described in the antiviral assay (Test A) except that uninfected cells were used.” for “read.”
Background: Cellular ATP, detected with luciferase, serves as a proxy for viable cell number.

Test in data set [1]: as above
The data set is classed as cell-based. Conditions: human, uninfected MT-4 cells, CellTiter-Glo. Here is the method: as §1, with “read. […] Compound cytotoxicity and the corresponding CC50 values was determined using the same protocol as described in the antiviral assay (Test A) except that uninfected cells were used.” for “read.”

[2] abbreviates: from dose response curve at 0.01 μM (10 nM).
The mark [3] stands for this setting: from dose response curve at 0.20 μM (200 nM).

The structures appear in SMILES notation. Some results are limits rather than exact numbers.

By inhibition is commonly meant the change of the read-out against control, counted positive when it falls. Usually CC50 stands for the concentration giving 50% cytotoxicity. Read a high CC50 as better tolerance by the cells. Regarding `CC(C)(O)c1nnc(Nc2nn(CC(F)F)c3c(-c4ccc(C#CC(C)(C)S(=O)(=O)C5CC5)nc4[C@H](Cc4cc(F)cc(F)c4)NC(=O)Cn4nc(C(F)F)c5c4C(F)(F)[C@@H]4C[C@H]54)ccc(Cl)c23)o1` [Example 24], in the data set with HIV-IIIb (setting [2]), the inhibition at 0.01 µM is 100%. Further, the inhibition at 0.2 µM with HIV-IIIb (setting [3]) amounted to 100%. The molecule further returned a CC50 with MT-4 cells of 9.07 µM.

For orientation: % inhibition means the share of the control response that was lost under treatment. Low readings indicate little suppression, high ones strong suppression. On to `CC(C)(O)c1nnc(Nc2nn(CC(F)F)c3c(-c4ccc(C#CC(C)(C)S(=O)(=O)C5CC5)nc4[C@H](Cc4cc(F)cc(F)c4)NC(=O)Cn4nc(C(F)F)c5c4C(F)(F)[C@@H]4C[C@H]54)ccc(Cl)c23)o1` [Example 25], for which the “% inhibition at 0.01 μM” value in the data set on HIV-IIIb (setting [2]) is 100%. Besides, in the data set on HIV-IIIb (setting [3]), the “% inhibition at 0.20 μM” value was determined as 100%. Also, in the data set with MT-4 cells, the CC50 was above 57.1 µM.

As for `CCS(=O)(=O)Nc1nn(CC(F)F)c2c(-c3ccc(C#CC(C)(C)S(=O)(=O)C4CC4)nc3[C@H](Cc3cc(F)cc(F)c3)NC(=O)Cn3nc(C(F)F)c4c3C(F)(F)[C@@H]3C[C@H]43)cccc12` [Example 51], the inhibition at 0.01 µM in the data set on HIV-IIIb (setting [2]) came out at 67%. Further, the inhibition at 0.2 µM in the data set with HIV-IIIb (setting [3]) is 91%. Besides, the half-maximal cytotoxic concentration (CC50) at 5 days in data set [1] is 51.2 µM.

As for `CC(C)(C#Cc1ccc(-c2cccc3c(NS(=O)(=O)C4CC4)nn(CC(F)F)c23)c([C@H](Cc2cc(F)cc(F)c2)NC(=O)Cn2nc(C(F)F)c3c2C(F)(F)[C@@H]2C[C@H]32)n1)S(=O)(=O)C1CC1` [Example 52], the inhibition at 0.01 µM in the data set with HIV-IIIb (setting [2]) came out at 93%. For the same molecule, the inhibition at 0.2 µM with HIV-IIIb (setting [3]) was determined as 93%. The molecule further returned a 50% cytotoxic concentration (CC50) at 5 days in data set [1] above 57.1 µM.

For the molecule `Cn1nc(NS(C)(=O)=O)c2c(Cl)ccc(-c3ccc(C#CC(C)(C)S(=O)(=O)C4CC4)nc3[C@H](Cc3cc(F)cc(F)c3)NC(=O)Cc3nc4ccccc4[nH]3)c21` [Example 54], the inhibition at 0.01 µM in the data set on HIV-IIIb (setting [2]) worked out at 18%. Besides, the inhibition at 0.2 µM with HIV-IIIb (setting [3]) is 99%. The same molecule came in with a CC50 at 5 days in data set [1] of 29.8 µM.

As for `Cn1nc(NS(C)(=O)=O)c2c(Cl)ccc(-c3ccc(C#CC(C)(C)S(=O)(=O)C4CC4)nc3[C@H](Cc3cc(F)cc(F)c3)NC(=O)c3ccn[nH]3)c21` [Example 55], the inhibition at 0.01 µM with HIV-IIIb (setting [2]) stood at 86%. The inhibition at 0.2 µM in the data set on HIV-IIIb (setting [3]) was found to be 96%. The CC50 at 5 days in data set [1] was found to be 22.2 µM.

With `Cn1nc(NS(C)(=O)=O)c2c(Cl)ccc(-c3ccc(C#CC(C)(C)S(=O)(=O)C4CC4)nc3[C@H](Cc3cc(F)cc(F)c3)NC(=O)Cn3nc(C(F)F)c(Cl)c3C(F)F)c21` [Example 56], in the data set on HIV-IIIb (setting [2]), the inhibition at 0.01 µM is 0%. Besides, in the data set on HIV-IIIb (setting [3]), the inhibition at 0.2 µM worked out at 91%. In addition, in data set [1], the 50% cytotoxic concentration (CC50) at 5 days amounted to 23.5 µM.

`CC(C)(C#Cc1ccc(-c2ccc(F)c3c(NS(=O)(=O)C4CC4)nn(CC(F)F)c23)c([C@H](Cc2cc(F)cc(F)c2)NC(=O)Cn2nc(C(F)(F)F)c3c2C(F)(F)[C@@H]2C[C@H]32)n1)S(=O)(=O)C1CC1` [Example 57]: the inhibition at 0.01 µM in the data set with HIV-IIIb (setting [2]) was 59%. The inhibition at 0.2 µM in the data set with HIV-IIIb (setting [3]) was found to be 91%. Also, the 50% cytotoxic concentration (CC50) at 5 days in data set [1] is above 57.1 µM.

Consider `Cn1nc(NS(C)(=O)=O)c2c(Cl)ccc(-c3ccc(C#CC(C)(C)S(=O)(=O)C4CC4)nc3[C@H](Cc3cc(F)cc(F)c3)NC(=O)Cn3nc(C(F)F)c(Br)c3C(F)F)c21` [Example 58], for which the inhibition at 0.01 µM in the data set with HIV-IIIb (setting [2]) came to 95%. Further, in the data set with HIV-IIIb (setting [3]), the inhibition at 0.2 µM worked out at 95%. In data set [1], the CC50 at 5 days was above 57.1 µM.

Regarding `Cn1nc(NS(C)(=O)=O)c2c(Cl)ccc(-c3ccc(C#CC(C)(C)S(=O)(=O)C4CC4)nc3[C@H](Cc3cc(F)cc(F)c3)NC(=O)Cn3nc(C(F)F)c(C4CC4)c3C(F)F)c21` [Example 59], the inhibition at 0.01 µM in the data set on HIV-IIIb (setting [2]) was 81%. The inhibition at 0.2 µM in the data set with HIV-IIIb (setting [3]) is 93%. Also, in data set [1], the cytotoxic concentration (CC50) at 5 days was above 57.1 µM.

For `Cn1nc(NS(C)(=O)=O)c2c(Cl)ccc(-c3ccc(C#CC(C)(C)S(=O)(=O)C4CC4)nc3[C@H](Cc3cc(F)cc(F)c3)NC(=O)CCn3cccn3)c21` [Example 60], the inhibition at 0.01 µM with HIV-IIIb (setting [2]) came to 100%. In addition, the inhibition at 0.2 µM in the data set on HIV-IIIb (setting [3]) amounted to 100%. In data set [1], the CC50 at 5 days turned out to be 19.2 µM.

For the molecule `Cn1nc(NS(C)(=O)=O)c2c(Cl)ccc(-c3ccc(C#CC(C)(C)S(=O)(=O)C4CC4)nc3[C@H](Cc3cc(F)cc(F)c3)NC(=O)Cn3ncc4ccccc43)c21` [Example 61], the inhibition at 0.01 µM with HIV-IIIb (setting [2]) stood at 3%. Further, the inhibition at 0.2 µM in the data set on HIV-IIIb (setting [3]) was found to be 98%. The molecule further registered a 50% cytotoxic concentration (CC50) at 5 days in data set [1] of 28.4 µM.

On to `Cn1nc(NS(C)(=O)=O)c2c(Cl)ccc(-c3ccc(C#CC(C)(C)S(=O)(=O)C4CC4)nc3[C@H](Cc3cc(F)cc(F)c3)NC(=O)Cn3cnc4ccccc43)c21` [Example 62], for which the inhibition at 0.01 µM in the data set on HIV-IIIb (setting [2]) came out at 56%. Moreover, the inhibition at 0.2 µM in the data set with HIV-IIIb (setting [3]) came out at 93%. For the same molecule, the CC50 at 5 days in data set [1] was 30.7 µM.

As for `Cn1nc(NS(C)(=O)=O)c2c(Cl)ccc(-c3ccc(C#CC(C)(C)S(=O)(=O)C4CC4)nc3[C@H](Cc3cc(F)cc(F)c3)NC(=O)Cn3nnc4ccccc43)c21` [Example 63], the inhibition at 0.01 µM with HIV-IIIb (setting [2]) was found to be 1%. The inhibition at 0.2 µM with HIV-IIIb (setting [3]) is 100%. In addition, the CC50 at 5 days in data set [1] worked out at 21.8 µM.

For `Cn1nc(NS(C)(=O)=O)c2c(Cl)ccc(-c3ccc(C#CC(C)(C)S(=O)(=O)C4CC4)nc3[C@H](Cc3cc(F)cc(F)c3)NC(=O)Cn3cc(C(F)(F)F)nc3C3CC3)c21` [Example 64], the inhibition at 0.01 µM in the data set on HIV-IIIb (setting [2]) was found to be 45%. For the same molecule, the inhibition at 0.2 µM with HIV-IIIb (setting [3]) turned out to be 94%. In data set [1], this molecule yielded a half-maximal cytotoxic concentration (CC50) at 5 days above 50 µM.

For the molecule `Cn1nc(NS(C)(=O)=O)c2c(Cl)ccc(-c3ccc(C#CC(C)(C)S(=O)(=O)C4CC4)nc3[C@H](Cc3cc(F)cc(F)c3)NC(=O)Cn3cc(C(F)(F)F)cn3)c21` [Example 65], the inhibition at 0.01 µM in the data set on HIV-IIIb (setting [2]) was determined as 27%. For the same molecule, the inhibition at 0.2 µM in the data set with HIV-IIIb (setting [3]) amounted to 100%. In data set [1], this molecule gave a CC50 at 5 days above 50 µM.

`Cn1nc(NS(C)(=O)=O)c2c(Cl)ccc(-c3ccc(C#CC(C)(C)S(=O)(=O)C4CC4)nc3[C@H](Cc3cc(F)cc(F)c3)NC(=O)Cc3ncc[nH]3)c21` [Example 66]: the inhibition at 0.01 µM with HIV-IIIb (setting [2]) was found to be 61%. Further, the inhibition at 0.2 µM in the data set with HIV-IIIb (setting [3]) was 97%. In addition, half-maximal cytotoxicity in data set [1] (CC50 at 5 days) was put at 11.7 µM.

`CCS(=O)(=O)Nc1nn(CC(F)(F)F)c2c(-c3ccc(C#CC(C)(C)S(=O)(=O)C4CC4)nc3[C@H](Cc3cc(F)cc(F)c3)NC(=O)Cn3nc(C(F)(F)F)c4c3C(F)(F)[C@@H]3C[C@H]43)ccc(Cl)c12` [Example 67]: the inhibition at 0.01 µM with HIV-IIIb (setting [2]) was found to be 13%. Moreover, the inhibition at 0.2 µM in the data set on HIV-IIIb (setting [3]) amounted to 0%. The same molecule yielded a half-maximal cytotoxic concentration (CC50) at 5 days in data set [1] above 50 µM.

In the case of `CC(C)(C#Cc1ccc(-c2ccc(Cl)c3c(NS(C)(=O)=O)nn(CC(F)(F)F)c23)c([C@H](Cc2cc(F)cc(F)c2)NC(=O)Cn2nc(C(F)(F)F)c3c2C(F)(F)[C@@H]2C[C@H]32)n1)S(=O)(=O)C1CC1` [Example 68], the inhibition at 0.01 µM in the data set on HIV-IIIb (setting [2]) was 100%. Moreover, in the data set on HIV-IIIb (setting [3]), the inhibition at 0.2 µM is 100%. In data set [1], this molecule displayed a half-maximal cytotoxic concentration (CC50) at 5 days above 50 µM.

`CC(C)(C#Cc1ccc(-c2ccc(Cl)c3c(NS(=O)(=O)C4CC4)nn(C4COC4)c23)c([C@H](Cc2cc(F)cc(F)c2)NC(=O)Cn2nc(C(F)(F)F)c3c2C(F)(F)[C@@H]2C[C@H]32)n1)S(=O)(=O)C1CC1` [Example 69]: in the data set on HIV-IIIb (setting [2]), the inhibition at 0.01 µM was 92%. Moreover, the inhibition at 0.2 µM with HIV-IIIb (setting [3]) was found to be 92%. Besides, the CC50 at 5 days in data set [1] is above 50 µM.
